Experimental data from publication PMC10743971, “MP Allosterically Activates AMPK to Enhance ABCA1 Stability by Retarding the Calpain-Mediated Degradation Pathway” (International Journal of Molecular Sciences, 2023).

Columns and labels:
[1] = biological target: T1, AMPK (AMPKα1β1γ1) (Rattus norvegicus, UniProt P80385); assay: STD-NMR and NMR competition titration against MP; format: binding
T1 construct: gene Prkag1; recombinant full-length AMPKα1β1γ1 heterotrimer, 6×His tag at the N-terminal end of the α-subunit; with AMPK α1 (Prkaa1) and β1 (Prkab1) subunits
T1 sequence (P80385 whole entry): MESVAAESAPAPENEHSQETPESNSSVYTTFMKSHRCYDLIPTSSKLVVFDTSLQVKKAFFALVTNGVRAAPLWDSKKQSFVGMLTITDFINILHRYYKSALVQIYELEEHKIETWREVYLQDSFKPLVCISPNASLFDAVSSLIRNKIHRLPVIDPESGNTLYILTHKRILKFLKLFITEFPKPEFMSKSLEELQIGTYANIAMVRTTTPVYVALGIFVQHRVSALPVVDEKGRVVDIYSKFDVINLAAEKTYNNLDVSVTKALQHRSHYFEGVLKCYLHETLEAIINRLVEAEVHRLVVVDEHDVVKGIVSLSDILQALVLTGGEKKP
T1 sequence (P54645 whole entry partner): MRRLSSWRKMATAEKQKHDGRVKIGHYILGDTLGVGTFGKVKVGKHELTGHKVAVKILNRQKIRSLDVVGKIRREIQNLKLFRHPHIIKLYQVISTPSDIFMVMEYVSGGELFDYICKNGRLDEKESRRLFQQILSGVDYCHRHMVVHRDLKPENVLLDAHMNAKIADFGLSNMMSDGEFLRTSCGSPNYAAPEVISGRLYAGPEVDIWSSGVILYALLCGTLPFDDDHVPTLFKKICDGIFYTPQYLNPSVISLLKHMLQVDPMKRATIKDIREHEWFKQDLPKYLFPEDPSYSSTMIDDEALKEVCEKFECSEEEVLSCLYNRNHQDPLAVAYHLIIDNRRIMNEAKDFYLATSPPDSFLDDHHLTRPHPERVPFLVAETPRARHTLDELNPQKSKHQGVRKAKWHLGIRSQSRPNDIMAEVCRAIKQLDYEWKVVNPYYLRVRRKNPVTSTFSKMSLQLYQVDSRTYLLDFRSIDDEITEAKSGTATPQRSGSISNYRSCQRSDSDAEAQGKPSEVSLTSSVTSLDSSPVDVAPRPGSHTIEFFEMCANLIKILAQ
T1 sequence (P80386 2-270 partner): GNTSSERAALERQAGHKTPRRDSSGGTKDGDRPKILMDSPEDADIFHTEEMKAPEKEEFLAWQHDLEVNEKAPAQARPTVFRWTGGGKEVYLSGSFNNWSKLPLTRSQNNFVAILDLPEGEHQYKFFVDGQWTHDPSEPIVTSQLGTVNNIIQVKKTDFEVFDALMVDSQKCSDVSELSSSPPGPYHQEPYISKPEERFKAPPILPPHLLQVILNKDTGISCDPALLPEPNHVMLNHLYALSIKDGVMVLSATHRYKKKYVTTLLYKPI

[2] = biological target: T1, AMPK (AMPKα1β1γ1); assay: MST (Kd […]); ITC (Kd […]); STD-NMR; CD; format: binding

Kd [2]	Compound	STD-NMR and NMR competition titration against MP [1]
	Nc1ncnc2c1ncn2[C@@H]1O[C@H](COP(=O)(O)O)[C@@H](O)[C@H]1O [AMP, adenosine monophosphate]	adenosine monophosphate (AMP) and MP bind directly to AMPK
4.27 µM	O=P(O)(O)OC[C@H]1O[C@@H](n2cnc3c(Nc4cccc(O)c4)ncnc32)[C@H](O)[C@@H]1O [MP, ((2R,3S,4R,5R)-3,4-dihydroxy-5-(6-((3-hydroxyphenyl)amino)-9H-purin-9-yl)tetrahydrofuran-2-yl) methyl dihydrogen phosphate]	
